Measurements taken from patent US9072293B2, “Cyclopropenes and method for applying cyclopropenes to agricultural products or crops” (Erum Biotechnologies Inc., priority 2010, dated 2015).
Several values for one entry are separate records, joined by “and”; a condition that tells them apart may be missing. Equal values may be shown once.

Assays:
[1] = Relative chemical stability of cyclopropenes measured by 1H-NMR; format: physicochemical; settings: for Stability (relative chemical stability, based on cyclopropenes having a chain length of 1): 1H-NMR, CDCl3, stored at −20° C. or room temperature, relative to chain length 1
From the text: A variety of analysis methods can be used to analyze the derivatives of Formula 6, since the absorbance of cyclopropenes containing an aryl group can be easily measured in the UV range. It can be confirmed that the chemical stability of the derivatives increases, when the length of chains to link an aryl ring to a cyclopropene ring is 2 or more. […] It is supposed that the stability of cyclopropenes increase due to the fact that π electrons of aryl groups affect π electrons of cyclopropenes.
The following Table 1 summarizes the relative chemical stability of cyclopropenes having a chain length of 2, 3, 4 or 5, based on the chemical stability of cyclopropenes having a chain length of 1. In the case of cyclopropene having a chain length of 1, the structure thereof can be confirmed via ^1H-NMR within one hour following synthesis (degraded to a level of 50% or more within one hour at 30° C.). In the case of cyclopropene having a chain length of zero, synthesis thereof was attempted in accordance with the present invention, but was impossible by a conventional method. Meanwhile, in the case of cyclopropenes having a chain length of 2 or more, the structure thereof can be precisely confirmed by ^1H-NMR as well as ^13C-NMR. The stability of these cyclopropenes was measured by ^1H-NMR while NMR cells (CDCl3) were stored at −20° C. or room temperature. In particular, cyclopropenes having chains of 3 or more were so stable that their half-life reached 5 days or longer at −20° C. or lower. In ^1H-NMR analysis, the stability was evaluated by comparing integral values at 4 to 6.5 ppm (1H) and 0.8 to 0.9 ppm (2H), characteristic peaks of 1-alkylcyclopropenes, using a small amount of 1,1,3,3-tetramethylurea (2.80 ppm) as an internal standard. Furthermore, the stability was also qualitatively evaluated by comparing integral value of the peak newly generated adjacent to the peak of the olefin proton of cyclopropene ring, as a 1-alkylcyclopropene compound is decomposed.

tomato [2] = test: Experimental Example 2: Efficacy test on tomato using oil based formulation (reddening grade); format: in vivo; parameters: key: an area in which the surface of tomato was colored in pink was 10% or less; an area in which the surface of tomato was completely colored in red was 10 to 40%; 2: an area in which the surface of tomato was completely colored in red was 40 to 70%; 3: an area in which the surface of tomato was completely colored in red was 70% or more and the bottom area remained green; 4: an area in which the surface of tomato was most colored in red and only a part of (0 to 10%) the bottom area remained green; 5: the surface of tomato did not entirely color in green; settings: 1.0 mM oil-based formulation, individual tomatoes n=4
From the text: (§1) At this time, the tops of tomatoes most early turned red, while the bottoms thereof most lately turned red. For this reason, in order to accurately evaluate the difference in reddening, the coloring evaluated was based on the area of red color, rather than the color of tomatoes. […] Accordingly, the grade level is proportional to the rate at which the tomatoes ripened.
As illustrated in Example 1, in situ, in accordance with the methods of Preparation Examples 15, 16, 17, 18 and 22, five agents (1.0 mmol) such as 1-(2-phenylethyl)cyclopropene, 1-(3-phenylpropyl)cyclopropene, 1-(4-phenylbutyl)cyclopropene, 1-(5-phenylpentyl)cyclopropene and 1-hexylcyclopropene were prepared, 5.0 ml of xylene and 5.0 ml of water were added to the reaction solution, vigorously stirred for 5 minutes and stood. When the mixture was separated into an organic layer (upper layer) and an aqueous layer (lower layer), only the organic layer was collected and the aqueous layer was discarded. […] of hexane was added to the organic layer and homogeneously mixed to prepare a 1.0 mM oil-based formulation.
The tomatoes were screened in the same manner as in Experimental Example 1 and divided into 7 groups (n=4) including a non-treated group, a control group (solvent-treated group) and 5 agent groups. Tomatoes were treated with the previously prepared agent using a household sprayer such that the surface thereof was saturated. The tomatoes were stood at room temperature (25-30° C.) for 3 days and a reddening level thereof was evaluated based on grades of 0 to 5.

tomato [3] = test: Experimental Example 1: Efficacy test on tomato using emulsion (reddening grade); format: in vivo; parameters: key: an area in which the surface of tomato was colored in pink was 10% or less; an area in which the surface of tomato was completely colored in red was 10 to 40%; 2: an area in which the surface of tomato was completely colored in red was 40 to 70%; 3: an area in which the surface of tomato was completely colored in red was 70% or more and the bottom area remained green; 4: an area in which the surface of tomato was most colored in red and only a part of (0 to 10%) the bottom area remained green; 5: the surface of tomato did not entirely color in green; settings: individual tomatoes n=4
Procedure: In situ, a 1.0 mM 1-octylcyclopropene formulation was prepared using (trans)-1-octyl-1-(methanesulfonyloxy)-2-(trimethylsilyl)cyclopropane of Preparation Example 10 in the same manner as in Example 7. This solution was diluted to 1 to 100 times prior to use, as necessary. Experimental Example 1: Efficacy test on tomato using emulsion 1.0 mM formulations of five agents such as 1-(2-phenylethyl)cyclopropene, 1-(3-phenylpropyl)cyclopropene, 1-(4-phenylbutyl)cyclopropene, 1-(5-phenylpentyl)cyclopropene and 1-hexylcyclopropene were prepared in the same manner as in Example 1, and 1.0 mM and 100 μM solutions were prepared therefrom. Then, the effects of the solutions were compared with non-treated groups and control groups in which a surfactant or a stabilizing agent (sodium dodecylbenzenesulfonate or tristyrenylphenykethoxy)12ethanol) is dissolved.
Tomatoes whose top end began to turn pink were screened, harvested and divided into 12 groups (n=4) in total, i.e., non-treated groups, control groups (surfactant) and agent groups with different concentrations such as 100 μM and 1.0 mM. Tomatoes were treated with the prepared agent formulation using a household sprayer such that the surface thereof was saturated. The tomatoes were stood at room temperature (25-30° C.) for 3 days and a reddening level thereof was evaluated based on grades of 0 to 5.
as §1

Row | chemical stability (in words) [1] | Stability (relative chemical stability, based on cyclopropenes having a chain length of 1) [1] | SMILES | Tomato results: reddening level (grade 0 to 5) (tomato [2]; Day 0, room temperature (25-30° C.)) | Tomato results: reddening level (grade 0 to 5) (tomato [2]; Day 1, room temperature (25-30° C.)) | Tomato results: reddening level (grade 0 to 5) (tomato [2]; Day 2, room temperature (25-30° C.)) | Tomato results: reddening level (grade 0 to 5) (tomato [2]; Day 3, room temperature (25-30° C.)) | reddening level (grade 0 to 5) (tomato [3]; 100 μM, Day 0, room temperature (25-30° C.)) | reddening level (grade 0 to 5) (tomato [3]; 100 μM, Day 1, room temperature (25-30° C.)) | reddening level (grade 0 to 5) (tomato [3]; 100 μM, Day 2, room temperature (25-30° C.)) | reddening level (grade 0 to 5) (tomato [3]; 100 μM, Day 3, room temperature (25-30° C.)) | reddening level (grade 0 to 5) (tomato [3]; 1.0 mM, Day 0, room temperature (25-30° C.)) | reddening level (grade 0 to 5) (tomato [3]; 1.0 mM, Day 1, room temperature (25-30° C.)) | reddening level (grade 0 to 5) (tomato [3]; 1.0 mM, Day 2, room temperature (25-30° C.)) | reddening level (grade 0 to 5) (tomato [3]; 1.0 mM, Day 3, room temperature (25-30° C.))
1 | considerably unstable | 1 | C1=C(Cc2ccccc2)C1 [1-benzylcyclopropene] | – | – | – | – | – | – | – | – | – | – | – | –
2 | – | – | CCCCCCC1=CC1 [(Hexyl), 1-hexylcyclopropene, reference compound] | 0 (an area in which the surface of tomato was colored in pink was 10% or less) (2×) and 1 (an area in which the surface of tomato was completely colored in red was 10 to 40%) and 2 (an area in which the surface of tomato was completely colored in red was 40 to 70%) | 1 (an area in which the surface of tomato was completely colored in red was 10 to 40%) (2×) and 2 (an area in which the surface of tomato was completely colored in red was 40 to 70%) and 3 (an area in which the surface of tomato was completely colored in red was 70% or more and the bottom area remained green) | 3 (an area in which the surface of tomato was completely colored in red was 70% or more and the bottom area remained green) and 2 (an area in which the surface of tomato was completely colored in red was 40 to 70%) and 4 and 5 | 4 (2×) and 5 (2×) | 0 (an area in which the surface of tomato was colored in pink was 10% or less) (2×) and 1 (an area in which the surface of tomato was completely colored in red was 10 to 40%) and 2 (an area in which the surface of tomato was completely colored in red was 40 to 70%) | 1 (an area in which the surface of tomato was completely colored in red was 10 to 40%) (2×) and 3 (an area in which the surface of tomato was completely colored in red was 70% or more and the bottom area remained green) and 4 | 3 (an area in which the surface of tomato was completely colored in red was 70% or more and the bottom area remained green) (2×) and 4 and 5 | 4 and 5 (3×) | 0 (an area in which the surface of tomato was colored in pink was 10% or less) (2×) and 1 (an area in which the surface of tomato was completely colored in red was 10 to 40%) and 2 (an area in which the surface of tomato was completely colored in red was 40 to 70%) | 1 (an area in which the surface of tomato was completely colored in red was 10 to 40%) (2×) and 2 (an area in which the surface of tomato was completely colored in red was 40 to 70%) and 3 (an area in which the surface of tomato was completely colored in red was 70% or more and the bottom area remained green) | 2 (an area in which the surface of tomato was completely colored in red was 40 to 70%) (2×) and 3 (an area in which the surface of tomato was completely colored in red was 70% or more and the bottom area remained green) and 4 | 3 (an area in which the surface of tomato was completely colored in red was 70% or more and the bottom area remained green) (2×) and 5 (2×)
3 | – | ~1 | COc1ccc(CC2=CC2)cc1 [A=—, Z=4-OCH, 1-(4-methoxybenzyl)cyclopropene] | – | – | – | – | – | – | – | – | – | – | – | –
